IC50 data for 26 compounds are collected here from patent publication US20100286181A1, “PYRROLE DERIVATIVES WITH ANTIBACTERIAL ACTIVITY” (ASTRAZENECA AB, priority 2006, published 2010).

For the experiment, the target named is GyrB ATPase activity (E. coli GyrA, E. coli GyrB) (Escherichia coli, UniProt P0AES6). Nature of the experiment: GyrB ATPase inhibition activity assay (ammonium molybdate/malachite green phosphate detection). The class given is biochemical. The settings on record: figure quoted may be an average of two or more results. The protocol: Compounds may be tested for inhibition of GyrB ATPase activity using an ammonium molybdate/malachite green-based phosphate detection assay (Lanzetta, P. A., L. J. Alvarez, P. S. Reinach, and O. A. Candia, 1979, 100: 95-97). Assays can be performed in multiwell plates in 100 μl reactions containing: 50 mM HEPES buffer pH 7.5, 75 mM ammonium acetate, 5.5 mM magnesium chloride, 0.5 mM ethylenediaminetetraacetic acid, 5% glycerol, 1 mM 1,4-Dithio-DL-threitol, 200 nM bovine serum albumin, 5 μg/ml sheared salmon sperm DNA, 2.5 nM E. coli GyrA, 2.5 nM E. coli GyrB, 250 μM ATP, and compound in dimethylsulfoxide. Reactions can be quenched with 150 μl of ammonium molybdate/malachite green detection reagent containing 1.2 mM malachite green hydrochloride, 8.5 mM ammonium molybdate tetrahydrate, and 1 M hydrochloric acid.
Compounds of the Examples could be expected to have IC50 values of <200 μg/ml in one or both assays described herein above. For Example the following results were obtained in a GyrB ATPase inhibition activity assay substantially similar to the above wherein the figure quoted may be an average of two or more results
Usually IC50 stands for the concentration at which inhibition is half-maximal. The low end stands for higher potency, the high end for lower potency. As to `CO/N=C1\CN(c2nc(-c3ncc[nH]3)c(C(=O)O)s2)CCC1NC(=O)c1[nH]c(C)c(Cl)c1Cl` (centres unmarked) [Example 29, 2-[(3E)-4-{[(3,4-Dichloro-5-methyl-1H-pyrrol-2-yl)carbonyl]amino}-3-(methoxyimino)piperidin-1-yl]-4-(1H-imidazol-2-yl)-1,3-thiazole-5-carboxylic acid], the IC50 was below 9.77 nM.
The same measure for `COC(=O)c1sc(N2CCC(NC(=O)c3[nH]c(C)c(Cl)c3Cl)C3(C2)OCCO3)nc1C(C)=O` (centres unmarked) [Example 2, Methyl 4-acetyl-2-(10-{[(3,4-dichloro-5-methyl-1H-pyrrol-2-yl)carbonyl]amino}-1,4-dioxa-7-azaspiro[4.5]dec-7-yl)-1,3-thiazole-5-carboxylate]: 487 nM.
The same measure for `Cc1[nH]c(C(=O)N[C@@H]2CCN(c3nc4cccc(C(N)=O)c4s3)C[C@@H]2n2ccnn2)c(Cl)c1Cl` [Example 82, 2-[(3S,4R)-4-{[(3,4-Dichloro-5-methyl-1H-pyrrol-2-yl)carbonyl]amino}-3-(1H-1,2,3-triazol-1-yl)piperidin-1-yl]-1,3-benzothiazole-7-carboxamide]: below 9.77 nM.
Turning to `Cc1[nH]c(C(=O)N[C@@H]2CCN(c3nc(C(=O)NC4CC4)c(C(=O)O)s3)C[C@@H]2n2cc(Cl)nn2)c(Cl)c1Cl` [Example 110], the IC50 is below 9.77 nM.
Next, `CCOC(=O)c1cccc2nc(N3CC[C@H](NC(=O)c4[nH]c(C)c(Cl)c4Cl)[C@H](n4ccnc4)C3)sc12` (racemic) [Example 41, cis(±)Ethyl 2-[4-{[(3,4-dichloro-5-methyl-1H-pyrrol-2-yl)carbonyl]amino}-3-(1H-imidazol-1-yl)piperidin-1-yl]-1,3-benzothiazole-7-carboxy late]: 53.4 nM.
Next, `CONC(=O)c1cccc2nc(N3CC[C@H](NC(=O)c4[nH]c(C)c(Cl)c4Cl)[C@H](n4ccnc4)C3)sc12` (racemic) [Example 46, cis(±)2-[4-{[(3,4-Dichloro-5-methyl-1H-pyrrol-2-yl)carbonyl]amino}-3-(1H-imidazol-1-yl)piperidin-1-yl]-N-methoxy-1,3-benzothiazole-7-carboxamide]: below 9.77 nM; `CCOC(=O)c1sc(N2CC[C@H](NC(=O)c3[nH]c(C)c(Cl)c3Cl)[C@H](n3cncn3)C2)nc1C(=O)N[C@@H](C)COC` (racemic) [Example 48, cis(±)Ethyl 2-[4-{[(3,4-dichloro-5-methyl-1H-pyrrol-2-yl)carbonyl]amino}-3-(1H-1,2,4-triazol-1-yl)piperidin-1-yl]-4-({[(1S)-2-methoxy-1-methylethyl]amino}carbonyl)-1,3-thiazole-5-carboxylate]: 36.5 nM.
The compound `Cc1[nH]c(C(=O)NC2CCN(c3ncc(C(=O)O)s3)CC23OCC(C)(C)CO3)c(Cl)c1Cl` (centres unmarked) [Example 57, 2-(11-{[(3,4-Dichloro-5-methyl-1H-pyrrol-2-yl)carbonyl]amino}-3,3-dimethyl-1,5-dioxa-8-azaspiro[5.5]undec-8-yl)-1,3-thiazole-5-carboxylic acid] came in with an IC50 below 9.77 nM.
For the compound `COC(=O)c1cnc(N2CC[C@H](NC(=O)c3[nH]c(C)c(Cl)c3Cl)[C@H](n3cc(C)nn3)C2)s1` (racemic) [Example 121, cis(±)Methyl 2-[4-{[(3,4-dichloro-5-methyl-1H-pyrrol-2-yl)carbonyl]amino}-3-(4-methyl-1H-1,2,3-triazol-1-yl)piperidin-1-yl]-1,3-thiazole-5-carboxylate], half-maximal inhibition (IC50) was put at 36.9 nM.
Regarding `CONC(=O)c1cnc(N2CC[C@@H](NC(=O)c3[nH]c(C)c(Cl)c3Cl)[C@@H](n3ccnn3)C2)s1` [Example 120, 2-[(3S,4R)-4-{[(3,4-Dichloro-5-methyl-1H-pyrrol-2-yl)carbonyl]amino}-3-(1H-1,2,3-triazol-1-yl)piperidin-1-yl]-N-methoxy-1,3-thiazole-5-carboxamide], half-maximal inhibition (IC50) required 19.6 nM.
`COCCNC(=O)c1nc(N2CC[C@@H](NC(=O)c3[nH]c(C)c(Cl)c3Cl)[C@@H](N=[N+]=[N-])C2)sc1C(=O)O` [Example 103] returned an IC50 below 9.77 nM.
Consider `COCCNC(=O)c1nc(N2CC[C@@H](NC(=O)c3[nH]c(C)c(Cl)c3Cl)[C@@H](n3cc(COC)nn3)C2)sc1C(=O)O` [Example 117], for which the IC50 was below 9.77 nM.
Turning to `COCCNC(=O)c1nc(N2CC[C@@H](NC(=O)c3[nH]c(C)c(Cl)c3Cl)[C@@H](n3ccnn3)C2)sc1C(=O)O` [Example 100], the IC50 is below 9.77 nM.
Next, `CCOC(=O)c1sc(N2CCC(NC(=O)c3[nH]c(C)c(Cl)c3Cl)/C(=N/OC)C2)nc1C(=O)NCCOC` (centres unmarked) [Example 33, Ethyl 2-[(3E)-4-{[(3,4-dichloro-5-methyl-1H-pyrrol-2-yl)carbonyl]amino}-3-(methoxyimino)piperidin-1-yl]-4-{[(2-methoxyethyl)amino]carbonyl}-1,3-thiazole-5-carboxylate]: 36.9 nM; `COC(=O)c1cnc(N2CC[C@H](NC(=O)c3[nH]c(C)c(Cl)c3Cl)[C@H](n3ccnn3)C2)s1` (racemic) [Example 126, cis(±)Methyl 2-[4-{[(3,4-dichloro-5-methyl-1H-pyrrol-2-yl)carbonyl]amino}-3-(1H-1,2,3-triazol-1-yl)piperidin-1-yl]-1,3-thiazole-5-carboxylate]: 32.7 nM; `COCCNC(=O)c1nc(N2CC[C@@H](NC(=O)c3[nH]c(C)c(Cl)c3Cl)[C@@H](n3cc(Cl)nn3)C2)sc1C(=O)O` [Example 108, 2-((3S,4R)-3-(4-Chloro-1H-1,2,3-triazol-1-yl)-4-{[(3,4-dichloro-5-methyl-1H-pyrrol-2-yl)carbonyl]amino}piperidin-1-yl)-4-{[(2-methoxyethyl)amino]carbonyl}-1,3-thiazole-5-carboxylic acid]: below 9.77 nM.
The same measure for `COC1COC2(CN(c3ncc(C(=O)O)s3)CCC2NC(=O)c2[nH]c(C)c(Cl)c2Cl)OC1` [Example 52, 2-((rel-3R,6r,11R)-11-{[(3,4-Dichloro-5-methyl-1H-pyrrol-2-yl)carbonyl]amino}-3-methoxy-1,5-dioxa-8-azaspiro[5.5]undec-8-yl)-1,3-thiazole-5-carboxylic acid]: below 9.77 nM; for `COC(=O)c1cnc(N2CCC(NC(=O)c3[nH]c(C)c(Cl)c3Cl)C3(C2)OCC(C)(C)CO3)s1` (centres unmarked) [Example 64, Methyl 2-(11-{[(3,4-dichloro-5-methyl-1H-pyrrol-2-yl)carbonyl]amino}-3,3-dimethyl-1,5-dioxa-8-azaspiro[5.5]undec-8-yl)-1,3-thiazole-5-carboxylate]: 155 nM; for `Cc1[nH]c(C(=O)N[C@H]2CCN(c3nc4cccc(C(=O)O)c4s3)C[C@H]2n2ccnc2)c(Cl)c1Cl` (racemic) [Example 44, cis(±)2-[4-{[(3,4-Dichloro-5-methyl-1H-pyrrol-2-yl)carbonyl]amino}-3-(1H-imidazol-1-yl)piperidin-1-yl]-1,3-benzothiazole-7-carboxylic acid]: below 9.77 nM.
For the compound `COC(=O)c1sc(N2CCC(NC(=O)c3[nH]c(C)c(Cl)c3Cl)C3(C2)OCCCO3)nc1C(C)=O` (centres unmarked) [Example 9, Methyl 4-acetyl-2-(11-{[(3,4-dichloro-5-methyl-1H-pyrrol-2-yl)carbonyl]amino}-1,5-dioxa-8-azaspiro[5.5]undec-8-yl)-1,3-thiazole-5-carboxylate], the IC50 came to 52.2 nM. That is a double-digit nanomolar value.
Next, `Cc1[nH]c(C(=O)NC2CCN(c3ncc(C(=O)O)s3)CC23OCC2(CC2)CO3)c(Cl)c1Cl` (centres unmarked) [Example 55, 2-(11-{[(3,4-Dichloro-5-methyl-1H-pyrrol-2-yl)carbonyl]amino}-5,12-dioxa-8-azadispiro[2.2.5.2]tridec-8-yl)-1,3-thiazole-5-carboxylic acid]: below 9.77 nM; `COCC(COC)NC(=O)c1nc(N2CC[C@@H](NC(=O)c3[nH]c(C)c(Cl)c3Cl)[C@@H](n3cc(C)nn3)C2)sc1C(=O)O` [Example 105]: below 9.77 nM; `COCCNC(=O)c1nc(N2CC[C@@H](NC(=O)c3[nH]c(C)c(Cl)c3Cl)[C@@H](n3cc(CO)nn3)C2)sc1C(=O)O` [Example 115]: below 9.77 nM.
In turn, `Cc1[nH]c(C(=O)N[C@H]2CCN(c3ncc(C(=O)O)s3)C[C@H]2N=[N+]=[N-])c(Cl)c1Cl` (racemic) [Example 66, cis(±)-2-(3-Azido-4-{[(3,4-dichloro-5-methyl-1H-pyrrol-2-yl)carbonyl]amino}piperidin-1-yl)-1,3-thiazole-5-carboxylic acid] returned an IC50 below 9.77 nM.
Compound `CCOC(=O)c1sc(N2CCC(NC(=O)c3[nH]c(C)c(Cl)c3Cl)C3(C2)OCCO3)nc1C(=O)NCCOC` (centres unmarked) [Example 5, Ethyl 2-(10-{[(3,4-dichloro-5-methyl-1H-pyrrol-2-yl)carbonyl]amino}-1,4-dioxa-7-azaspiro[4.5]dec-7-yl)-4-{[(2-methoxyethyl)amino]carbonyl}-1,3-thiazole-5-carboxylate] returned an IC50 of 226 nM.
Next, `COCCNC(=O)c1nc(N2CCC(NC(=O)c3[nH]c(C)c(Cl)c3Cl)C3(C2)OCCCO3)sc1C(=O)O` (centres unmarked) [Example 17, 2-(11-{[(3,4-Dichloro-5-methyl-1H-pyrrol-2-yl)carbonyl]amino}-1,5-dioxa-8-azaspiro[5.5]undec-8-yl)-4-{[(2-methoxyethyl)amino]carbonyl}-1,3-thiazole-5-carboxylic acid]: below 9.77 nM.
